Data published in patent US12240844B2 (Voronoi, Inc., priority 2019, dated 2025).
pIC50: −log10 of the molar value.

What follows are compounds tested against T1, LRRK2, LRRK2 (G2019S), DYRK1, CLK1 and TTK kinases (Homo sapiens, UniProt P49759) (assay: Enzyme IC50 by Kinase HotSpot service (Reaction Biology Corporation), values marked with *). Details: CLK1, ATP 10 uM.
T1 construct: CLK1 IC50 (marked with *); other: CLK1; Kinase HotSpot service (Reaction Biology), ATP 10 uM
Assay type: biochemical
Method in brief: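 Radiometric-service kinase assays (Reaction Biology HotSpot protocol) run at 10 uM ATP under uniform conditions. Compounds tested as 3-fold dilution series from a top concentration of […] to give IC50.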

T1 sequence (P49759 whole entry, stated change not applied): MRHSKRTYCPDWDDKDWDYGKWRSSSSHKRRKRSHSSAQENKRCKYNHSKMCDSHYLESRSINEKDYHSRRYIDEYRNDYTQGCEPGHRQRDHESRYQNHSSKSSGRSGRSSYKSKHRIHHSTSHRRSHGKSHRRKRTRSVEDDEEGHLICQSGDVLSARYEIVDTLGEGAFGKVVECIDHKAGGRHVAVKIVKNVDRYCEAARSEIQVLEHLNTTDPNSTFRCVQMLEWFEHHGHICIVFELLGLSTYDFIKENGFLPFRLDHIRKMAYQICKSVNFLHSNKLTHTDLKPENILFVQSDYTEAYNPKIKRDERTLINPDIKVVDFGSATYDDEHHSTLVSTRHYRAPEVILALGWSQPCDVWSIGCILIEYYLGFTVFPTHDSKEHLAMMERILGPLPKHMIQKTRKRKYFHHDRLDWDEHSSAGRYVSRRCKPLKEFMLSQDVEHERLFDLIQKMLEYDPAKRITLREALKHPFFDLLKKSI

pIC50, > 7.00:
O=C(c1ccc(Nc2cc(C3CC3)c3c(C(F)(F)F)c[nH]c3n2)c2c1CCO2)N1CC[C@H](N2CCOCC2)C1 [Example 237, (S)-(7-((4-cyclopropyl-3-(trifluoromethyl)-1H-pyrrolo[2,3-b]pyridin-6-yl)amino)-2,3-dihydrobenzofuran-4-yl)(3-morpholinopyrrolidin-1-yl)methanone]
O=C(c1ccc(Nc2cc(C3CC3)c3c(C(F)(F)F)c[nH]c3n2)c2c1CCO2)N1CC[C@@H](N2CCOCC2)C1 [Example 238, (R)-(7-((4-cyclopropyl-3-(trifluoromethyl)-1H-pyrrolo[2,3-b]pyridin-6-yl)amino)-2,3-dihydrobenzofuran-4-yl)(3-morpholinopyrrolidin-1-yl)methanone]
CNc1cc(Nc2ccc(S(=O)(=O)N3CCC(N4CCOCC4)CC3)cc2OC)nc2[nH]cc(C(F)(F)F)c12 [Example 184, N^6-(2-methoxy-4-((4-morpholinopiperidin-1-yl)sulfonyl)phenyl)-N^4-methyl-3-(trifluoromethyl)-1H-pyrrolo[2,3-b]pyridine-4,6-diamine]
O=C(c1ccc(Nc2cc(C3CC3)c3c(C(F)(F)F)c[nH]c3n2)c2c1CCO2)N1CCOCC1 [Example 91, (7-((4-cyclopropyl-3-(trifluoromethyl)-1H-pyrrolo[2,3-b]pyridin-6-yl)amino)-2,3-dihydrobenzofuran-4-yl)(morpholino) methanone]
